This note sets out measurements from US20240425502A1, “BICYCLIC HETEROAROMATIC COMPOUNDS AND THEIR USE AS PEST CONTROL AGENTS” (PI INDUSTRIES LTD., priority 2021, published 2024).

Holding throughout (assay type): in vivo
One test deals with Myzus persicae. As to the kind of experiment: Myzus persicae leaf dip test (capsicum leaves, third instar nymphs). The conditions noted are these: foliar, 72 h after release, dead and moribund combined, compared to untreated control, read-out: percent mortality.
The subject of the next test is Nilaparvata lugens. In words: Nilaparvata lugens seedling dip test (paddy seedlings, third instar nymphs). The conditions noted are these: 72 h after release, dead and moribund combined, compared to untreated control, read-out: percent mortality.
The test system of the next test is Bemisia tabaci. As to the kind of experiment: Bemisia tabaci leaf dip test (brinjal leaves, whitefly adults). The conditions noted are these: foliar, 72 h after release, dead and moribund combined, compared to untreated control, read-out: percent mortality. The protocol:
The leaf dip method was used for testing, wherein the required quantity of the compound was weighed and dissolved in a tube containing a solvent solution. The tube was put on a vortex at 2000 rpm for 90 min for proper mixing and then the mixture was diluted with a 0.01% Triton-X solution to the desired test concentration. Brinjal leaves were dipped in the compound solution for 10 seconds, shade dried for 20 min and then placed, with the abaxial side of the leaf up, on 4 ml of a 1% agar-agar solution in respective container caps. Known numbers of freshly emerged whitefly adults were collected, using a modified aspirator, and released into a perforated container in which the cap containing the treated leaf was placed. The containers were kept in a plant growth chamber at a temperature of 25° C. and a relative humidity of 70%. Observations on dead, moribund and alive adults were recorded 72 h after the release. Percent mortality was calculated by combining dead and moribund adults and comparing the result to the one of the untreated control. The compounds 32 53 58 79 80 81 82 84 87 88 89 94 95 96 101 102 103 104 105 106 107 108 109 112 113 114 115 116 117 118 119 120 123 124 125 126 127 130 135 138 139 140 144 145 147 150 154 156 158 159 164 167 168 169 170 171 188 189 191 198 199 200 201 202 206 207 208 209 210 213 216 223 224 225 227 228 231 232 233 234 235 236 238 242 243 244 246 and 247 recorded≥70 percent mortality @ 300 PPM.

A word on the mortality: it is the percentage killed.

For `O=c1nc2n(Cc3cnc(Cl)nc3)cccc-2c(=O)n1-c1cc(F)cc(C(F)(F)F)c1` [Compound 244, 8-((2-chloropyrimidin-5-yl)methyl)-3-(3-fluoro-5-(trifluoromethyl)phenyl)pyrido[2,3-d]pyrimidine-2,4(3H,8H)-dione], the mortality at 300 ppm in the test with Myzus persicae, with Nilaparvata lugens and in the test with Bemisia tabaci was not below 70% each time.

For the compound `O=c1nc2n(Cc3cnc(Cl)nc3)cccc-2c(=O)n1-c1ccc(Cl)c(F)c1` [Compound 208, 3-(4-chloro-3-fluorophenyl)-8-((2-chloropyrimidin-5-yl)methyl)pyrido[2,3-d]pyrimidine-2,4(3H,8H)-dione], the mortality at 300 ppm in the test with Myzus persicae, in the test with Nilaparvata lugens and in the test on Bemisia tabaci was not below 70% in each case.

`O=c1nc2n(Cc3ccc(Cl)nc3)cccc-2c(=O)n1-c1ccc(OC(F)(F)F)cc1` [Compound 126, 8-((6-chloropyridin-3-yl)methyl)-3-(4-(trifluoromethoxy)phenyl)pyrido[2,3-d]pyrimidine-2,4(3H,8H)-dione]: the mortality at 300 ppm with Myzus persicae and in the test with Bemisia tabaci was not below 70% in each case.

In the case of `O=c1nc2n(Cc3cnc(Cl)s3)cccc-2c(=O)n1-c1cccc(C(F)(F)F)c1` [Compound 88, 8-((2-chlorothiazol-5-yl)methyl)-3-(3-(trifluoromethyl)phenyl)pyrido[2,3-d]pyrimidine-2,4(3H,8H)-dione], the mortality at 300 ppm in the test with Myzus persicae, in the test with Nilaparvata lugens and with Bemisia tabaci was not below 70% in each case.

For the compound `O=c1nc2n(Cc3cnc(Cl)nc3)cccc-2c(=O)n1-c1ccc(F)c(C(F)(F)F)c1` [Compound 213, 8-((2-chloropyrimidin-5-yl)methyl)-3-(4-fluoro-3-(trifluoromethyl)phenyl)pyrido[2,3-d]pyrimidine-2,4(3H,8H)-dione], the mortality at 300 ppm in the test on Myzus persicae, with Nilaparvata lugens and in the test with Bemisia tabaci was not below 70% in each case.

As for `O=c1nc2n(Cc3ccc(Cl)nc3)cccc-2c(=O)n1-c1ccc(OCC(F)(F)F)cc1` [Compound 223, 8-((6-chloropyridin-3-yl)methyl)-3-(4-(2,2,2-trifluoroethoxy)phenyl)pyrido[2,3-d]pyrimidine-2,4(3H,8H)-dione], the mortality at 300 ppm in the test with Myzus persicae, in the test on Nilaparvata lugens and in the test with Bemisia tabaci was not below 70% in each case.

Consider `O=c1c2cccn(Cc3cnc(Cl)nc3)c-2nc(=S)n1-c1ccc(Cl)cc1` [Compound 210, 3-(4-chlorophenyl)-8-((2-chloropyrimidin-5-yl)methyl)-2-thioxo-2,8-dihydropyrido[2,3-d]pyrimidin-4(3H)-one], for which the mortality at 300 ppm in the test with Myzus persicae, in the test on Nilaparvata lugens and in the test on Bemisia tabaci was not below 70% throughout.

Regarding `O=c1nc2n(Cc3cnc(Cl)nc3)cccc-2c(=O)n1-c1ccc2c(c1)OC(F)(F)O2` [Compound 198, 8-((2-chloropyrimidin-5-yl)methyl)-3-(2,2-difluorobenzo[d][1,3]dioxol-5-yl)pyrido[2,3-d]pyrimidine-2,4(3H,8H)-dione], the mortality at 300 ppm with Myzus persicae, in the test on Nilaparvata lugens and with Bemisia tabaci was not below 70% throughout.

Consider `O=c1nc2n(Cc3cnc(Cl)nc3)cccc-2c(=O)n1-c1ccc(F)cc1` [Compound 117, 8-((2-chloropyrimidin-5-yl)methyl)-3-(4-fluorophenyl)pyrido[2,3-d]pyrimidine-2,4(3H,8H)-dione], for which the mortality at 300 ppm with Myzus persicae, with Nilaparvata lugens and in the test on Bemisia tabaci was not below 70% throughout.

In the case of `O=c1nc2n(Cc3cnc(Cl)nc3)cccc-2c(=O)n1-c1cccc(OC(F)(F)F)c1` [Compound 130, 8-((2-chloropyrimidin-5-yl)methyl)-3-(3-(trifluoromethoxy)phenyl)pyrido[2,3-d]pyrimidine-2,4(3H,8H)-dione], the mortality at 300 ppm with Nilaparvata lugens and in the test with Bemisia tabaci was not below 70% throughout.

As to `COc1cc(-n2c(=O)nc3n(Cc4cnc(Cl)nc4)cccc-3c2=O)ccc1Cl` [Compound 171, 3-(4-chloro-3-methoxyphenyl)-8-((2-chloropyrimidin-5-yl)methyl)pyrido[2,3-d]pyrimidine-2,4(3H,8H)-dione], the mortality at 300 ppm in the test on Nilaparvata lugens and with Bemisia tabaci was not below 70% throughout.

With `O=c1nc2n(Cc3cnc(Cl)nc3)cccc-2c(=O)n1-c1c(F)cccc1F` [Compound 206, 8-((2-chloropyrimidin-5-yl)methyl)-3-(2,6-difluorophenyl)pyrido[2,3-d]pyrimidine-2,4(3H,8H)-dione], the mortality at 300 ppm in the test with Nilaparvata lugens and in the test with Bemisia tabaci was not below 70% each time.

For the compound `O=c1nc2n(Cc3ccc(Cl)nc3)cccc-2c(=O)n1-c1cc(C(F)(F)F)cc(C(F)(F)F)c1` [Compound 107, 3-(3,5-bis(trifluoromethyl)phenyl)-8-((6-chloropyridin-3-yl)methyl)pyrido[2,3-d]pyrimidine-2,4(3H,8H)-dione], the mortality at 300 ppm in the test on Myzus persicae and in the test on Bemisia tabaci was not below 70% throughout.

For `O=c1nc2n(Cc3cnc(Cl)nc3)cccc-2c(=O)n1-c1ccc(Cl)cc1F` [Compound 147, 3-(4-chloro-2-fluorophenyl)-8-((2-chloropyrimidin-5-yl)methyl)pyrido[2,3-d]pyrimidine-2,4(3H,8H)-dione], the mortality at 300 ppm in the test on Nilaparvata lugens and with Bemisia tabaci was not below 70% in each case.

Take `O=c1nc2n(Cc3cnc(Cl)nc3)cccc-2c(=O)n1-c1ccc(Cl)c(C(F)(F)F)c1` [Compound 224, 3-(4-chloro-3-(trifluoromethyl)phenyl)-8-((2-chloropyrimidin-5-yl)methyl)pyrido[2,3-d]pyrimidine-2,4(3H,8H)-dione]: the mortality at 300 ppm in the test on Nilaparvata lugens and in the test on Bemisia tabaci was not below 70% throughout.

Regarding `CC(C)n1c(=O)nc2n(Cc3cnc(Cl)nc3)cccc-2c1=O` [Compound 84, 8-((2-chloropyrimidin-5-yl)methyl)-3-isopropylpyrido[2,3-d]pyrimidine-2,4(3H,8H)-dione], the mortality at 300 ppm in the test with Myzus persicae and with Bemisia tabaci was not below 70% throughout.

Consider `O=c1nc2n(Cc3cnc(Cl)s3)cccc-2c(=O)n1-c1ccc(Cl)cc1` [Compound 80, 3-(4-chlorophenyl)-8-((2-chlorothiazol-5-yl)methyl)pyrido[2,3-d]pyrimidine-2,4(3H,8H)-dione], for which the mortality at 300 ppm in the test on Myzus persicae and in the test with Bemisia tabaci was not below 70% in each case.

Consider `O=c1c2cccn(Cc3ccc(Cl)nc3)c-2nc(=S)n1-c1ccc(OC(F)(F)F)cc1` [Compound 209, 8-((6-chloropyridin-3-yl)methyl)-2-thioxo-3-(4-(trifluoromethoxy)phenyl)-2,8-dihydropyrido[2,3-d]pyrimidin-4(3H)-one], for which the mortality at 300 ppm in the test with Nilaparvata lugens and in the test with Bemisia tabaci was not below 70% throughout.

As to `Cn1cc(-n2c(=O)nc3n(Cc4cnc(Cl)s4)cccc-3c2=O)cn1` [Compound 89, 8-((2-chlorothiazol-5-yl)methyl)-3-(1-methyl-1H-pyrazol-4-yl)pyrido[2,3-d]pyrimidine-2,4(3H,8H)-dione], the mortality at 300 ppm with Myzus persicae and in the test on Bemisia tabaci was not below 70% in each case.

Turning to `O=c1nc2n(Cc3cnc(Cl)nc3)cccc-2c(=O)n1-c1ccccc1F` [Compound 200, 8-((2-chloropyrimidin-5-yl)methyl)-3-(2-fluorophenyl)pyrido[2,3-d]pyrimidine-2,4(3H,8H)-dione], the mortality at 300 ppm in the test on Nilaparvata lugens and with Bemisia tabaci was not below 70% each time.
